This note sets out measurements from the NIST ThermoML archive (doi:10.1016/j.fluid.2007.05.026).

Each structure is given as a SMILES string. ± gives the expanded uncertainty stated by the source.

The conditions of series [1]: for mass density: 101.33 kPa, Vibrating tube method; for Normal melting temperature: visual observation.
Series [2] can be described thus: refractive index (Na D-line) (dimensionless). The conditions noted are these: 101.33 kPa, Liquid, Standard Abbe refractometry.

Take `Oc1ccccc1` [phenol]: the mass density in series [1] (314.45 K, Liquid) is listed as 1061 ± 1 kg/m3. The Normal melting temperature in series [1] (Crystal) worked out at 41.30 ± 0.5 °C. Further, the refractive index in series [2] (314.45 K) was 1.5425 ± 0.0007.
Turning to `Oc1ccc(O)cc1` [1,4-benzenediol], in series [1] (298.15 K, Crystal), the mass density is 1338 ± 2 kg/m3. Further, the Normal melting temperature in series [1] (Crystal) amounted to 171.40 ± 0.5 °C.
With `CC(=O)CC(C)C` [4-methylpentan-2-one], the mass density in series [1] (298.15 K, Liquid) is 799.8 ± 0.3 kg/m3. The Normal boiling temperature in series [1] (Liquid, Manometric method) was determined as 117.60 ± 0.1 °C. Besides, the refractive index in series [2] (298.15 K) is on record as 1.396 ± 0.0008.
